According to patent publication US8222416B2, “Azaindole glucokinase activators” (Hoffmann-La Roche Inc., priority 2009, dated 2012):

target: T1, Recombinant human liver GK1 (GST-GK) (Homo sapiens, UniProt P35557); experiment: In vitro glucokinase activity assay (G6PDH-coupled, NADH, OD340); assay type: biochemical; conditions: concentration of activator that produced a 50% increase in the activity of GK; 5 mM D-glucose, 30° C.
T1 construct: made in house; host or cells: E. coli
T1 sequence (P35557 1-466 isoform P35557-2): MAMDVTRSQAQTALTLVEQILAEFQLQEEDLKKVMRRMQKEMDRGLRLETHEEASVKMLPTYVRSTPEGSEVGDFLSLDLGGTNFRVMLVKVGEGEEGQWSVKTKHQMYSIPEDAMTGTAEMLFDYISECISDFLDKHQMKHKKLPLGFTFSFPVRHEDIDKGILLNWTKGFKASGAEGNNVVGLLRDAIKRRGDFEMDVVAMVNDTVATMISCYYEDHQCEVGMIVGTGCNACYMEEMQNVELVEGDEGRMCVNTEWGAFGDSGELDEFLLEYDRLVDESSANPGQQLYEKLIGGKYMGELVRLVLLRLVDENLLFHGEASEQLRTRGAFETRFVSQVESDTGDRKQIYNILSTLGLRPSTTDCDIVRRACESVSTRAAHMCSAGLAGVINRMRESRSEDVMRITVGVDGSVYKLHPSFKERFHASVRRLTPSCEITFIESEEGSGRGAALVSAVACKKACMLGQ
Protocol: Glucokinase In Vitro Assay Protocol: Glucokinase (GK) was assayed by coupling the production of glucose-6-phosphate to the generation of NADH with glucose-6-phosphate dehydrogenase (G6PDH, 0.75-1 kunits/mg; Boehringer Mannheim, Indianapolis, Ind.) from Leuconostoc mesenteroides as the coupling enzyme (Scheme 2).
Recombinant human liver GK1 was expressed in E. coli as a glutathione S-transferase fusion protein (GST-GK) [Liang et al, 1995] and was purified by chromatography over a glutathione-Sepharose 4B affinity column using the procedure provided by the manufacturer (Amersham Pharmacia Biotech, Piscataway, N.J.).
The assay was conducted at 30° C. in a flat bottom 96-well tissue culture plate from Costar (Cambridge, Mass.) with a final incubation volume of 120 μL. The incubation reaction contained the following: 25 mM Hepes buffer (pH 7.1), 25 mM KCl, 5 mM D-glucose, 1 mM ATP, 1.8 mM NAD, 2 mM MgCl2, 1 μM sorbitol-6-phosphate, 1 mM dithiothreitol, test drug or 10% dimethylsulfoxide, ˜7 units/ml G6PDH, and GK (see below). All organic reagents were >98% pure and were from Boehringer Mannheim with the exceptions of D-glucose and Hepes which were from Sigma Chemical Co, St Louis, Mo. Test compounds were dissolved in dimethylsulfoxide and were added to the incubation reaction minus GST-GK in a volume of 12 μL to yield a final dimethylsulfoxide concentration of 10%. This mix was pre-incubated in the temperature controlled chamber of a SPECTRAmax 250 microplate spectrophotometer (Molecular Devices Corporation, Sunnyvale, Calif.) for 10 minutes to allow temperature equilibrium and then the reaction was started by the addition of 20 μL GST-GK.
After addition of enzyme, the increase in optical density (OD) at 340 nm was monitored spectrophotometrically to determine the rate of change (OD340 per min). The GK activity (OD340/min) in control wells (10% dimethylsulfoxide minus GK activators) was compared with the activity in wells containing test GK activators, and the concentration of activator that produced a 50% increase in the activity of GK, i.e., the SC1.5, was calculated.

| SMILES | SC1.5 [µM] |
| --- | --- |
| COc1cnc2[nH]c(C(CC3CCCO3)c3ccc(S(C)(=O)=O)cc3)cc2c1 (single isomer, unassigned) [Example 25, 2-[1-(4-Methanesulfonyl-phenyl)-2-(tetrahydro-furan-2-yl)-ethyl]-5-methoxy-1H-pyrrolo[2,3-b]pyridine] | 22.0 |
| CN(C)c1ccc(C(CC2CCCC2)c2cc3cccnc3[nH]2)cc1 (stereo not drawn) [Example 65, {4-[2-Cyclopentyl-1-(1H-pyrrolo[2,3-b]pyridin-2-yl)-ethyl]-phenyl}-dimethyl-amine] | 2.8 |
| N#Cc1ccc(C(CC2CCCC2)c2cc3cc(F)cnc3[nH]2)cc1 (stereo not drawn) [Example 50, 4-[2-Cyclopentyl-1-(5-fluoro-1H-pyrrolo[2,3-b]pyridin-2-yl)-ethyl]-benzonitrile] | 0.603 |
| Cc1ccc(C(CC2CCCC2)c2cc3cccnc3[nH]2)cn1 (stereo not drawn) [Example 63] | 3.5 |
| CC(C)(O)c1ccc([C@@H](CC2CCCC2)c2cc3cc(C(=O)O)cnc3[nH]2)cc1F (single isomer, unassigned) [Example 58] | 9.5 |
| Cc1cnc2[nH]c(C(CC3CCCC3)c3ccc(S(C)(=O)=O)cc3)cc2c1 (stereo not drawn) [Example 128, 2-[2-Cyclopentyl-1-(4-methanesulfonyl-phenyl)-ethyl]-5-methyl-1H-pyrrolo[2,3-b]pyridine] | 0.85 |
| CS(=O)(=O)c1ccc(/C(=C\C2CCC2)c2cc3cc(F)cnc3[nH]2)cc1 [Example 46, 2-[(E)-2-Cyclobutyl-1-(4-methanesulfonyl-phenyl)-vinyl]-5-fluoro-1H-pyrrolo[2,3-b]pyridine] | 0.028 |
| COc1cnc2[nH]c([C@H](CC3CCCCC3)c3ccc(S(C)(=O)=O)cc3)cc2c1 (single isomer, unassigned) [Example 10] | 0.218 |
| COCc1cnc2[nH]c(C(CC3CCCC3)c3ccc(S(C)(=O)=O)cc3)cc2c1 (stereo not drawn) [Example 41, 2-[2-Cyclopentyl-1-(4-methanesulfonyl-phenyl)-ethyl]-5-methoxymethyl-1H-pyrrolo[2,3-b]pyridine] | 2.8 |
| COc1ccc(C(CC2CCCC2)c2cc3cccnc3[nH]2)cn1 (stereo not drawn) [Example 61] | 3.0 |
| CS(=O)(=O)c1ccc(C(CC2CCCC2)c2cc3cc(C(O)CO)cnc3[nH]2)cc1 (stereo not drawn) [Example 7, 1-{2-[2-Cyclopentyl-1-(4-methanesulfonyl-phenyl)-ethyl]-1H-pyrrolo[2,3-b]pyridin-5-yl}-ethane-1,2-diol] | 25.6 |
| CS(=O)(=O)c1ccc(C(O)(CC2CCCC2)c2cc3cccnc3[nH]2)cc1 (single isomer, unassigned) [Example 86, 2-Cyclopentyl-1-(4-methanesulfonyl-phenyl)-1-(1H-pyrrolo[2,3-b]pyridin-2-yl)-ethanol] | 0.857 |
| CS(=O)(=O)c1ccc(C(CC2CCCC2)c2cc3cc(CCO)cnc3[nH]2)cc1 (stereo not drawn) [Example 36, 2-{2-[2-Cyclopentyl-1-(4-methanesulfonyl-phenyl)-ethyl]-1H-pyrrolo[2,3-b]pyridin-5-yl}-ethanol] | 3.4 |
| CN(C)C(=O)Cc1cnc2[nH]c(C(CC3CCCC3)c3ccc(S(C)(=O)=O)cc3)cc2c1 (stereo not drawn) [Example 39, 2-{2-[2-Cyclopentyl-1-(4-methanesulfonyl-phenyl)-ethyl]-1H-pyrrolo[2,3-b]pyridin-5-yl}-N,N-dimethyl-acetamide] | 9.1 |
| COc1cnc2[nH]c(/C(=C/C3CCCO3)c3ccc(S(C)(=O)=O)cc3)cc2c1 (stereo not drawn) [Example 21, 2-[(E)-1-(4-Methanesulfonyl-phenyl)-2-(tetrahydro-furan-2-yl)-vinyl]-5-methoxy-1H-pyrrolo[2,3-b]pyridine] | 0.821 |
| CS(=O)(=O)c1ccc(C(CC2CCCC2)c2cc3cccnc3[nH]2)nc1 (stereo not drawn) [Example 112, 2-[2-Cyclopentyl-1-(5-methanesulfonyl-pyridin-2-yl)-ethyl]-1H-pyrrolo[2,3-b]pyridine] | 0.587 |
| CC(C)CC(c1ccc(S(C)(=O)=O)cc1)c1cc2cc(F)cnc2[nH]1 (stereo not drawn) [Example 99, 5-Fluoro-2-[1-(4-methanesulfonyl-phenyl)-3-methyl-butyl]-1H-pyrrolo[2,3-b]pyridine] | 0.394 |

| SMILES | SC1.5 [µM] |
| --- | --- |
| CC(C)CC(c1cccc(F)c1)c1cc2cccnc2[nH]1 (stereo not drawn) [Example 132, 2-(1-(3-Fluoro-phenyl)-3-methyl-butyl)-1H-pyrrolo[2,3-b]pyridine] | 10.9 |
| CC(C)(O)c1ccc([C@@H](CC2CCCC2)c2cc3cc(F)cnc3[nH]2)cc1F (single isomer, unassigned) [Example 104] | 0.081 |
| CC(C)C[C@H](c1ccc(S(C)(=O)=O)cc1)c1cc2cc(F)cnc2[nH]1 (single isomer, unassigned) [Example 100] | 0.201 |
| COc1cnc2[nH]c(C(CC3CCCO3)c3ccc(S(C)(=O)=O)cc3)cc2c1 (single isomer, unassigned) [Example 23, 2-[1-(4-Methanesulfonyl-phenyl)-2-(tetrahydro-furan-2-yl)-ethyl]-5-methoxy-1H-pyrrolo[2,3-b]pyridine] | 21.9 |
| CN(C)CC(=O)Nc1cnc2[nH]c(C(CC3CCCC3)c3ccc(S(C)(=O)=O)cc3)cc2c1 (stereo not drawn) [Example 107, N-{2-[2-Cyclopentyl-1-(4-methanesulfonyl-phenyl)-ethyl]-1H-pyrrolo[2,3-b]pyridin-5-yl}-2-dimethylamino-acetamide] | 9.4 |
| CCC(O)(CC)c1ccc([C@@H](CC2CCCC2)c2cc3cccnc3[nH]2)cc1 (single isomer, unassigned) [Example 84] | 5.9 |
| CC(O)c1ccc(C(CC2CCCC2)c2cc3cccnc3[nH]2)cc1 (stereo not drawn) [Example 64, 1-{4-[2-Cyclopentyl-1-(1H-pyrrolo[2,3-b]pyridin-2-yl)-ethyl]-phenyl}-ethanol] | 2.2 |
| COc1cnc2[nH]c(C(CC3CCOCC3)c3ccc(S(C)(=O)=O)cc3)cc2c1 (stereo not drawn) [Example 31] | 1.9 |
| CC(O)c1cnc2[nH]c(C(CC3CCCC3)c3ccc(S(C)(=O)=O)cc3)cc2c1 (single isomer, unassigned) [Example 9, 1-{2-[2-Cyclopentyl-1-(4-methanesulfonyl-phenyl)-ethyl]-1H-pyrrolo[2,3-b]pyridin-5-yl}-ethanol] | 10.9 |
| CN(C)CCOc1cnc2[nH]c(C(CC3CCCC3)c3ccc(S(C)(=O)=O)cc3)cc2c1 (stereo not drawn) [Example 17, (2-{2-[2-Cyclopentyl-1-(4-methanesulfonyl-phenyl)-ethyl]-1H-pyrrolo[2,3-b]pyridin-5-yloxy}-ethyl)-dimethyl-amine] | 3.1 |
| CS(=O)(=O)c1ccc(C(CC2CCCC2)c2cc3cc(Cl)cnc3[nH]2)cc1 (stereo not drawn) [Example 111, 5-Chloro-2-[2-cyclopentyl-1-(4-methanesulfonyl-phenyl)-ethyl]-1H-pyrrolo[2,3-b]pyridine] | 0.15 |
| CS(=O)(=O)c1ccc([C@@H](CC2CCCC2)c2cc3cc(C#N)cnc3[nH]2)cc1 (single isomer, unassigned) [Example 53] | 0.144 |
| CC(C)Oc1cnc2[nH]c(C(CC3CCCC3)c3ccc(S(C)(=O)=O)cc3)cc2c1 (stereo not drawn) [Example 18, 2-[2-Cyclopentyl-1-(4-methanesulfonyl-phenyl)-ethyl]-5-isopropoxy-1H-pyrrolo[2,3-b]pyridine] | 0.719 |
| CS(=O)(=O)c1ccc(/C(=C\C2CCCO2)c2cc3cccnc3[nH]2)cc1 (stereo not drawn) [Example 70, (E)-2-[1-(4-Methanesulfonyl-phenyl)-2-(tetrahydro-furan-2-yl)-vinyl]-1H-pyrrolo[2,3-b]pyridine] | 0.082 |
| COCCCc1cnc2[nH]c(C(CC3CCCC3)c3ccc(S(C)(=O)=O)cc3)cc2c1 (stereo not drawn) [Example 44, 2-[2-Cyclopentyl-1-(4-methanesulfonyl-phenyl)-ethyl]-5-(3-methoxy-propyl)-1H-pyrrolo[2,3-b]pyridine] | 4.3 |
| CC(C)CC(c1cccc(Cl)c1)c1cc2cccnc2[nH]1 (stereo not drawn) [Example 131, 2-(1-(3-Chloro-phenyl)-3-methyl-butyl)-1H-pyrrolo[2,3-b]pyridine] | 9.9 |
